Like-named read-outs stand apart in the source and are kept apart here. Marks after values point to notes of the source that are not given here.
Key:
rat platelet-rich plasma = assay: In vitro antiplatelet activity: platelet aggregation in rat platelet-rich plasma (turbidimetric method of Born and Cross); assay type: cell-based; conditions: compounds and ASA at 150 μM, rat PRP, n = 3; for inhibition at 150 µM: Platelet
Procedure: In vitro antiplatelet activity was evaluated using rat platelet-rich plasma in the presence of ADP (10 μM), arachidonic acid (100 μM) and collagen (5 μg/mL) [15, 16].
Five rats (Wistar; 200–250 g) were previously anesthetized by inhalation of isoflurane using a vaporizing system. Animal breathing was monitored during all procedures. Blood was withdrawn from each rat’s aorta artery and mixed with 3.8% trisodium citrate (9:1 v/v). The animals were then euthanized by deepening of anesthesia. Platelet-rich plasma (PRP) was prepared by centrifugation at 375× g for 10 min at room temperature. The platelet-poor plasma (PPP) was prepared by centrifugation of the pellet at 1800× g for 10 min at room temperature. Platelet aggregation was monitored by the turbidimetric method of Born and Cross [16] using a Chrono-Log aggregometer. PRP (300 μL) was incubated at 37 °C for 1 min with continuous stirring at 900 rpm. ADP (10 μM), type I collagen (5 μg/mL; molecular weight of 115–130 kDa) and arachidonic acid (100 μM) were used to induce platelet aggregation. […] Acetylsalicylic acid (AAS, 150 μM) was used as positive control. The results were expressed as an inhibition percentage. The statistical analysis was performed using ANOVA followed by Tukey’ s test.

[1] = tested on: mouse pulmonary thromboembolism model; assay: In vivo antithrombotic activity: acute pulmonary thromboembolism model induced by collagen-epinephrine mixture; conditions: mice; for deaths per group: ten per group, oral 100 µmol/10 g, 15 min after thrombogenic stimulus; for % Protection / Paralyzed or Died Animals/Total: oral single dose 100 µmol/10 g body weight; for % Protection: [1 − (paralyzed + death animals)/total animals] × 100; for Paralyzed or Died Animals/Total: collagen (11 mg/kg) plus epinephrine (0.7 mg/kg) i.v. after 60 min, evaluated 15 min after stimulus
Procedure: The antithrombotic effects of all compounds (3a,b, 4a,b, 8a,b, 9a,b, 13a,b and 14a,b) were evaluated in vivo using a mouse pulmonary thromboembolism model [18, 19].
In vivo pulmonary thromboembolism was induced in mice according to previously described procedures [18, 19]. Ten Swiss male mice (25−30 g) were used in each test group and the control group. Compounds (3a,b, 4a,b, 8a,b, 9a,b, 13a,b and 14a,b) and acetylsalicylic acid were given orally (100 µmol/10 g, 0.1 mL/10 g) using a 2% carboxymethylcellulose suspension as the vehicle. After 60 min, an intravenous injection of the thrombogenic stimulus containing a mixture of collagen (11 mg/kg) plus epinephrine (0.7 mg/kg) was administered through the tail vein. The dose of the pro-thrombotic mixture was previously characterized using a dose/response curve able to reliably reproduce 80%–90% mortality rate or animal paralysis [15]. The loss of the righting reflex was considered an indication of animal’s paralysis in the control group. The rates of animal survival and paralysis were evaluated 15 min after the administration of the thrombogenic stimulus. After this time, the animals were euthanized using carbon dioxide. […] The protection against acute pulmonary thromboembolism (percentage) was calculated as follows: [1 − (paralyzed + death animals)/total animals] × 100. The chi-square test was used to examine the difference between the control and treated groups.

[2] = tested on: micronucleated reticulocytes (MNRET) of mice; assay: In vivo genotoxicity: micronucleus test in peripheral blood reticulocytes
Procedure: The genotoxicity induced by 14a was evaluated using the micronucleus test.
Compound 14a (250 mg/kg) and negative control (1% carboxymethylcellulose (CMC) suspension and 0.2% tween; 0.3 mL) were administered to the animals orally. The positive control group received cyclophosphamide (50 mg/kg; i.p.). Groups of 10 Swiss mice of both sexes (25−30 g) were used in each test and control group. After 30 h, the animals were anesthetized using a mixture of ketamine/xylazine (100/10 mg/kg; i.p.), and […] of blood were collected from the tail vein and added to laminas pre-stained with acridine orange. The animals were euthanized via deepening of anesthesia. One thousand reticulocytes per animal were counted, and the frequency of micronucleated cells was registered. […] When p < 0.05, the average values for the treatments were compared using the Tukey method, calculating the minimum significant difference at α = 0.05.

[3] = aggregation induced by ADP 10 μM, read-out: Platelet Inhibition (%) ADP (10 μM)
[4] = aggregation induced by arachidonic acid 100 μM, read-out: Platelet Inhibition (%) Arachidonic Acid (100 μM)
[5] = aggregation induced by collagen 5 μg/mL, read-out: Platelet Inhibition (%) Collagen (5 μg/mL)
[6] = aggregation induced by ADP 10 μM
[7] = aggregation induced by arachidonic acid 100 μM
[8] = aggregation induced by collagen 5 μg/mL

Compound | inhibition at 150 µM (rat platelet-rich plasma; [3]) [%] | inhibition at 150 µM (rat platelet-rich plasma; [4]) [%] | inhibition at 150 µM (rat platelet-rich plasma; [5]) [%] | deaths per group [1] | % Protection [1] | Paralyzed or Died Animals/Total [1] | Platelet Inhibition (%) ADP (10 μM) (rat platelet-rich plasma; [6]) | Platelet Inhibition (%) Arachidonic Acid (100 μM) (rat platelet-rich plasma; [7]) [%] | Platelet Inhibition (%) Collagen (5 μg/mL) (rat platelet-rich plasma; [8]) [%] | micronucleated reticulocytes (MNRET), frequency in 1000 cells ([2]; mouse, in vivo, po, 250 mg/kg) | micronucleated reticulocytes (MNRET), frequency in 1000 cells ([2]; mice, positive control 50 mg/kg i.p., blood collected after 30 h, mean ± SD)
CC(=O)Oc1ccccc1C(=O)Oc1cccc(C(=O)N/N=C/c2c(-c3ccccc3)no[n+]2[O-])c1 [Compound 9a, (E)-3-((2-(3-((2-Acetoxybenzoyl)oxy)benzoyl)hydrazono)methyl)-4-phenyl-1,2,5-oxadiazole 2-oxide] | 53.4 ± 2.1 | 73.4 ± 3.3 | 43.5 ± 4.7 | two | 30 * % | 7/10 | – | – | – | – | –
3-((2-(4-Hydroxybenzoyl)hydrazono)methyl)-4-methyl-1,2,5-oxadiazole 2-oxide [Compound 3b] | – | – | – | two | 30 * % | 7/10 | 16.8 ± 2.9 % | 47.8 ± 3.7 | 10.5 ± 3.3 | – | –
O=C(NN=Cc1c(-c2ccccc2)no[n+]1[O-])c1ccc(O)cc1 [Compound 8b, 3-((2-(4-Hydroxybenzoyl)hydrazono)methyl)-4-phenyl-1,2,5-oxadiazole 2-oxide] | 9.2 ± 2.8 | 31.6 ± 3.9 | 8.8 ± 3.6 | two | 40 * % | 6/10 | – | – | – | – | –
(E)-3-((2-(3-((2-Acetoxybenzoyl)oxy)benzoyl)hydrazono)methyl)-4-methyl-1,2,5-oxadiazole 2-oxide [Compound 4a] | – | – | – | two | 40 * % | 6/10 | 65.6 ± 2.4 % | 70.1 ± 2.9 | 37.8 ± 4.1 | – | –
CC(=O)Oc1ccccc1C(=O)Oc1ccc(C(=O)N/N=C/c2c(-c3ccccc3)no[n+]2[O-])cc1 [Compound 9b, (E)-3-((2-(4-((2-Acetoxybenzoyl)oxy)benzoyl)hydrazono)methyl)-4-phenyl-1,2,5-oxadiazole 2-oxide] | 68.8 ± 1.3 | 82.7 ± 2.1 | 47.2 ± 2.9 | – | 50 *^,† % | 5/10 | – | – | – | – | –
O=C(NN=Cc1ccc2c(c1)no[n+]2[O-])c1ccc(O)cc1 [Compound 13b, 5-((2-(4-Hydroxybenzoyl)hydrazono)methyl)benzo[c][1,2,5]oxadiazole 1-oxide] | – | – | – | – | 70 *^,† % | 3/10 | 44.2 ± 5.1 % | 57.8 ± 4.9 | 43.0 ± 3.1 | – | –
CC(=O)Oc1ccccc1C(=O)Oc1ccc(C(=O)N/N=C/c2ccc3c(c2)no[n+]3[O-])cc1 [Compound 14b, (E)-5-((2-(4-((2-Acetoxybenzoyl)oxy)benzoyl)hydrazono)methyl)benzo[c][1,2,5]oxadiazole 1-oxide] | – | – | – | – | 70 *^,† % | 3/10 | – | 79.1 ± 1.9 | 79.8 ± 3.4 | – | –
CC(=O)Oc1ccccc1C(=O)O [ASA, acetylsalicylic acid, reference compound] | 0 | – | 77.1 ± 3.7 | two | 30 * % | 7/10 | did not inhibit | 72.2 ± 3.7 | – | – | –
CC(=O)Oc1ccccc1C(=O)Oc1cccc(C(=O)N/N=C/c2ccc3c(c2)no[n+]3[O-])c1 [Compound 14a, (E)-5-((2-(3-((2-Acetoxybenzoyl)oxy)benzoyl)hydrazono)methyl)benzo[c][1,2,5]oxadiazole 1-oxide] | – | – | – | – | 80 *^,† % | 2/10 | – | 76.9 ± 3.1 | 85.3 ± 3.7 | < 4 | –
O=P1(N(CCCl)CCCl)NCCCO1 (stereo not drawn) [Cyclophosphamide, reference compound] | – | – | – | – | – | – | – | – | – | – | 41 ± 5
O=C(NN=Cc1c(-c2ccccc2)no[n+]1[O-])c1cccc(O)c1 [Compound 8a, 3-((2-(3-Hydroxybenzoyl)hydrazono)methyl)-4-phenyl-1,2,5-oxadiazole 2-oxide] | 12.4 ± 3.7 | 55.1 ± 4.3 | 21.8 ± 5.1 | two | 40 * % | 6/10 | – | – | – | – | –
(E)-3-((2-(4-((2-Acetoxybenzoyl)oxy)benzoyl)hydrazono)methyl)-4-methyl-1,2,5-oxadiazole 2-oxide [Compound 4b] | – | – | – | – | 50 *^,† % | 5/10 | – | 87.5 ± 2.6 | 34.5 ± 3.5 | – | –
5-((2-(3-Hydroxybenzoyl)hydrazono)methyl)benzo[c][1,2,5]oxadiazole 1-oxide [Compound 13a] | – | – | – | – | 70 *^,† % | 3/10 | 47.1 ± 2.5 % | 52.3 ± 3.8 | 45.1 ± 3.8 | – | –
3-((2-(3-Hydroxybenzoyl)hydrazono)methyl)-4-methyl-1,2,5-oxadiazole 2-oxide [Compound 3a] | – | – | – | two | 40 * % | 6/10 | 10.1 ± 3.3 % | 52.6 ± 4.1 | 17.5 ± 2.7 | – | –

Source: publication PMC6332090, “Synthesis and Preliminary Evaluation of N-Oxide Derivatives for the Prevention of Atherothrombotic Events” (Molecules, 2015)
